Legend:
OAT1 [1] = biological target: T1, OAT1 (Homo sapiens, UniProt Q4U2R8); parameters: The full-length protein was expressed as GFP fusion in HEK293 cells to check for protein expression; GFP; FLAG (inferred from capture on anti-flag antibody beads); made in house; host or cells: HEK293 cells, third-generation lentiviral vector; settings: cited from earlier work
T1 sequence (Q4U2R8 1-563): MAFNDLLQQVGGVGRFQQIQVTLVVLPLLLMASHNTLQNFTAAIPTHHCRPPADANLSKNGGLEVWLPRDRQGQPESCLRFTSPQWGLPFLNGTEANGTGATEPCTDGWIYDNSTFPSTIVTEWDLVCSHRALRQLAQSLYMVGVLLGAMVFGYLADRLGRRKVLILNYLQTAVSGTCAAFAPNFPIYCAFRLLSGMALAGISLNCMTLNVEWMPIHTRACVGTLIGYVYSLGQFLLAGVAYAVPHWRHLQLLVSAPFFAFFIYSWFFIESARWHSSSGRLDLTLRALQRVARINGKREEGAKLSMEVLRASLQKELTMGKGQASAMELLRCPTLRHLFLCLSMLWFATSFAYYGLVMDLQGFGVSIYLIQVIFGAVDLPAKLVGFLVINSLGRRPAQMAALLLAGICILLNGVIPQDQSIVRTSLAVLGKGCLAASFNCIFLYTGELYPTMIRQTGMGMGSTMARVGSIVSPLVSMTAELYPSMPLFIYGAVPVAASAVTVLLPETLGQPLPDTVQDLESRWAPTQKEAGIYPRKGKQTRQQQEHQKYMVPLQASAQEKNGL

OAT1 [2] = biological target: T2, OAT1 (Mus musculus, UniProt Q8VC69); assay: Tc-99m MAG3 imaging and postmortem γ counts in Oat1-KO and WT mice; type: in vivo; settings: WT vs Oat1-KO
T2 construct: from tissue; host or cells: living mice (kidney proximal tubule); Oat1-KO versus WT
T2 sequence (Q8VC69 1-545): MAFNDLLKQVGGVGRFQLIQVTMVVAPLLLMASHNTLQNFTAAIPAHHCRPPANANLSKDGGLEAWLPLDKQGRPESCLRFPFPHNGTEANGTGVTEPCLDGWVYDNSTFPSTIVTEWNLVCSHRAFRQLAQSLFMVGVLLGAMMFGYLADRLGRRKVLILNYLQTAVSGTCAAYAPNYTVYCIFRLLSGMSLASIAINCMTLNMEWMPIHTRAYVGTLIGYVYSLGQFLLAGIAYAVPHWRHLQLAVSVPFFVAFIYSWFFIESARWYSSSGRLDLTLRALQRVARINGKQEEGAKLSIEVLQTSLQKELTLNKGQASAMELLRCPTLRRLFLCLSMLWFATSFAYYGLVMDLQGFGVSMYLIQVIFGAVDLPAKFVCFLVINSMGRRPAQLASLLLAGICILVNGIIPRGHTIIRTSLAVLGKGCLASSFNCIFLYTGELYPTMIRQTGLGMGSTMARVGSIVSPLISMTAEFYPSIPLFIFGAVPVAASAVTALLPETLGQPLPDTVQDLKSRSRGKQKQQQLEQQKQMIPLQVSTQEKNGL
Description: Live-imaging experiments were performed with the In Vivo Imaging Shared Resource at the Moore’s Cancer Center at the UCSD. Mice were transported from the vivarium to the In Vivo Imaging Shared Resource. In total, 100 μCi of Tc-99m MAG3 was injected by tail vein into mice prior to imaging. Adult, male KO (n = 5) and WT mice (n = 5) were imaged in 5 separate pairs containing 1 KO mouse and 1 WT mouse each. Mice were initially weighed and anesthetized (2% isoflurane, 200 mL/min flow of O2). Mice were placed on their backs on the high-resolution γ imager (γ imager; BioSpace) fitted with a high-resolution, low-energy collimator. For 30 minutes, time-activity curves were collected from the kidneys, liver, and bladder. Following imaging, blood, urine, kidneys, liver, and spleen were isolated and weighed from each mouse for radioactive assessment using a γ counter.

| Molecule | In vitro cell–based transport assay (OAT1 [1]) | bladder levels, postmortem γ counts scaled to weight (OAT1 [2]; 4 of 5 pairs) | blood levels, postmortem γ counts scaled to weight (OAT1 [2]; 4 of 5 pairs) | time to maximal bladder levels (OAT1 [2]; tail-vein injection, 30 minutes, γ camera) |
| --- | --- | --- | --- | --- |
| NCCc1c[nH]c2ccc(O)cc12 [Serotonin] | × (17) |  |  |  |
| Tc-99m mercaptoacetyl-triglycine [Tc-99m MAG3] |  | higher in the WT mice | higher in the KO mice | WT bladders reached their maximal levels of Tc-99m MAG3 more quickly than the Oat1-KO mice |

From paper PMC9977316, “The kidney drug transporter OAT1 regulates gut microbiome–dependent host metabolism” (JCI Insight, 2023)
